Test results from PMC11603075 (Communications Biology, 2024).

Experiments:
KDM5B = experiment: MALDI–TOF MS demethylation/+16 Da assay, KDM5B; format: biochemical, human; conditions: 90 min
From the text: Fig. 2 Histone H2a fragments are KDM5 and KDM4 substrates. […] See Supplementary Table 6 and Supplementary Fig. 2 for assay conditions and quantification, respectively. […] 0-minute MS spectrum in black, 60/90-minute spectrum in red.
MS-based screening assays with peptides and calf thymus histones were as reported; see Supplementary Table 6 for conditions. Time course assays were based on reported procedures. In brief, equal volumes of the enzyme and substrate solutions were combined to initiate the reaction; 10 µL of 2% (v/v) formic acid (HCOOH) in ddH2O or 100% methanol was added to 10 µL of the reaction mixture to quench reactions at different time points. Unless otherwise stated, time course assays were carried out in triplicate. In some cases, LC–MS was used instead of MALDI-TOF MS to avoid a MALDI matrix induced artefact with the hydroxylated product (Supplementary Fig. 16). […]
Supplementary Figure 2 Histone H2a peptide fragments are substrates of KDM4s and KDM5s.
2 for representative corresponding MALDI–TOF MS traces. Bar graphs comparing % product format ion (+16 Da and demethylation) of H2a(1–20)R3me2a by (a) K DM5 A–D (after 90 minutes) and (b) KDM4A–E ( a ft er 60 minutes), analysed by MALDI– TOF MS. n = (a) 2, (b) 3 (independent assays). See Supplementary Table 6 for assay condit ions. See Figure S13 A 1 for a positive control.
(also on this page, place not known: formation KDM5A–D (after MALDI–TOF conditions. Figure S13A1 KDM4A KDM4B KDM4C KDM4D KDM4E 80% product formation KDM5A KDM5B KDM5C KDM5D % product formation) […]
(§1) [ E nz ym e] [Peptide] [2OG] [Ascorbate] [(NH4)2F e(S O4)2] [TCEP] Buffer pH7.5 Enzyme Cognate substrate (mM) (mM) (mM) (mM) (mM) (mM) [HE PE S]
(§2) Supplementary Table 6 Summary of MS assay conditions for substrate screening. These conditions enabled efficient turnover of established substrates. Reactions were carried out at 37 °C unless otherwise st ated. […]

KDM4E = target: T1, KDM4E (Homo sapiens, UniProt B2RXH2); experiment: MALDI–TOF MS time course / specific activity, KDM4E; format: biochemical
T1 construct: KDM4E1–337; made in house; host or cells: E. coli
T1 sequence (B2RXH2 1-337): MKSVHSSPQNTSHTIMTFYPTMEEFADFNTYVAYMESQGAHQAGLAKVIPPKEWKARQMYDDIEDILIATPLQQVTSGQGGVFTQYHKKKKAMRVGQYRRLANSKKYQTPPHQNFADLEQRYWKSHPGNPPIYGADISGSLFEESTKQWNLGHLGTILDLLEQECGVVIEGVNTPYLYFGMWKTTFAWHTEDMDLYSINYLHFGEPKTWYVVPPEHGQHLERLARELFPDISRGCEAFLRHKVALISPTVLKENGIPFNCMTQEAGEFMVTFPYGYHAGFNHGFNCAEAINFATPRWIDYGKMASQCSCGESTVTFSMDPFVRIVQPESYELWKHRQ
Description: MS-based screening assays with peptides and calf thymus histones were as reported; see Supplementary Table 6 for conditions. Time course assays were based on reported procedures. In brief, equal volumes of the enzyme and substrate solutions were combined to initiate the reaction; 10 µL of 2% (v/v) formic acid (HCOOH) in ddH2O or 100% methanol was added to 10 µL of the reaction mixture to quench reactions at different time points. Unless otherwise stated, time course assays were carried out in triplicate. In some cases, LC–MS was used instead of MALDI-TOF MS to avoid a MALDI matrix induced artefact with the hydroxylated product (Supplementary Fig. 16).
Data collected from time course assay(s) were used to plot the % conversion vs time (min) using GraphPad Prism5 version 5.04; the resultant slopes were used to fit a line with linear regression to the first-order region of the reaction. The resultant gradient was then converted from % product formation min^−1 to amount of peptide converted (demethylation and / or hydroxylation) in µM.
Supplementary Figure 4 Activity of KDM5C (black circles) with H2a(1–20)R3me2a is greater than that of KDM4E (white circles). (a) A MALDI–TOF MS time course graph of product formation (%) of KDM4E ( −14 Da/+16 Da) and KDM5C (−14 Da) reaction with H2a(1–20)R3me2a versus time (minutes). ~60% substrate depletion was reached after 105 minutes with KDM4E; ~95% of H2a(1–20)R3me2a was demethylated after 1 05 minut e s wit h K DM5 C. (b ) Comparison of specific activities of KDM4E with H2a(1–20)R3me2a (0.15 […]
bars; +/- SD; n = 3 (independent assays). See Supplementary Table 6 for assay condit ions.
(also on this page, place not known: 105 minutes KDM5C. (b) H2a(1 –20)R3me2a with conditions. specific activity (pmol·min-1·μM-1))
(1 picture or pasted object on this page, not shown here)
as §1, §2

- product formation (−14 Da/+16 Da) (KDM4E; 0 min, replicate 1): 0%
- product formation (−14 Da/+16 Da) (KDM4E; 0 min, replicate 2): 0%
- product formation (−14 Da/+16 Da) (KDM4E; 0 min, replicate 3): 0%
- product formation (−14 Da/+16 Da) (KDM4E; 5 min, replicate 1): 3.341%
- product formation (−14 Da/+16 Da) (KDM4E; 5 min, replicate 2): 5.787%
- product formation (−14 Da/+16 Da) (KDM4E; 5 min, replicate 3): -0.8025%
- product formation (−14 Da/+16 Da) (KDM4E; 15 min, replicate 1): -0.9416%
- product formation (−14 Da/+16 Da) (KDM4E; 15 min, replicate 2): 5.091%
- product formation (−14 Da/+16 Da) (KDM4E; 15 min, replicate 3): -0.7355%
- product formation (−14 Da/+16 Da) (KDM4E; 30 min, replicate 1): 22.6189%
- product formation (−14 Da/+16 Da) (KDM4E; 30 min, replicate 2): 32.3989%
- product formation (−14 Da/+16 Da) (KDM4E; 30 min, replicate 3): 20.757%
- product formation (−14 Da/+16 Da) (KDM4E; 45 min, replicate 1): 29.5376%
- product formation (−14 Da/+16 Da) (KDM4E; 45 min, replicate 2): 33.3686%
- product formation (−14 Da/+16 Da) (KDM4E; 45 min, replicate 3): 28.8806%
- product formation (−14 Da/+16 Da) (KDM4E; 60 min, replicate 1): 41.1416%
- product formation (−14 Da/+16 Da) (KDM4E; 60 min, replicate 2): 35.7562%
- product formation (−14 Da/+16 Da) (KDM4E; 60 min, replicate 3): 37.6375%
- product formation (−14 Da/+16 Da) (KDM4E; 75 min, replicate 1): 48.3844%
- product formation (−14 Da/+16 Da) (KDM4E; 75 min, replicate 2): 47.469%
- product formation (−14 Da/+16 Da) (KDM4E; 75 min, replicate 3): 46.9153%
- product formation (−14 Da/+16 Da) (KDM4E; 90 min, replicate 1): 60.0026%
- product formation (−14 Da/+16 Da) (KDM4E; 90 min, replicate 2): 49.7939%
- product formation (−14 Da/+16 Da) (KDM4E; 90 min, replicate 3): 54.7629%
- product formation (−14 Da/+16 Da) (KDM4E; 105 min, replicate 1): 62.5982%
- product formation (−14 Da/+16 Da) (KDM4E; 105 min, replicate 2): 62.265%
- product formation (−14 Da/+16 Da) (KDM4E; 105 min, replicate 3): 60.6438%
- substrate depletion (KDM4E; KDM4E, 105 minutes): ~ 60%
- specific activity (KDM4E; KDM4E, mean of n = 3, SD 0.010): 0.15 pmol min^−1 µM^−1
- specific activity (KDM4E; KDM4E, repeat 1): 0.1634 pmol·min-1·μM-1
- specific activity (KDM4E; KDM4E, repeat 2): 0.141 pmol·min-1·μM-1
- specific activity (KDM4E; KDM4E, repeat 3): 0.1586 pmol·min-1·μM-1
Substance: Ac - SGR [ me 2a ] GKQ GGKAR AKAKT R SSR [H2a(1–20)R3me2a, H2a(1–20)R3me2a without a biotin tag]
- +16 Da (% product formation) (KDM5B; replicate 1): 0%
- demethylation (% product formation) (KDM5B; replicate 1): 23.54%
- +16 Da (% product formation) (KDM5B; replicate 2): 0%
- demethylation (% product formation) (KDM5B; replicate 2): 18.654%
